Measurements published in PMC5123592 (Nature chemistry, 2016).

Tests used:
ZMPSTE24 [1] = molecular target: T1, ZMPSTE24 (Homo sapiens, UniProt O75844); experiment: native mass spectrometry; type: binding; details: 15 μM drug, equimolar ZMPSTE24, C8E4
T1 sequence (O75844 1-475): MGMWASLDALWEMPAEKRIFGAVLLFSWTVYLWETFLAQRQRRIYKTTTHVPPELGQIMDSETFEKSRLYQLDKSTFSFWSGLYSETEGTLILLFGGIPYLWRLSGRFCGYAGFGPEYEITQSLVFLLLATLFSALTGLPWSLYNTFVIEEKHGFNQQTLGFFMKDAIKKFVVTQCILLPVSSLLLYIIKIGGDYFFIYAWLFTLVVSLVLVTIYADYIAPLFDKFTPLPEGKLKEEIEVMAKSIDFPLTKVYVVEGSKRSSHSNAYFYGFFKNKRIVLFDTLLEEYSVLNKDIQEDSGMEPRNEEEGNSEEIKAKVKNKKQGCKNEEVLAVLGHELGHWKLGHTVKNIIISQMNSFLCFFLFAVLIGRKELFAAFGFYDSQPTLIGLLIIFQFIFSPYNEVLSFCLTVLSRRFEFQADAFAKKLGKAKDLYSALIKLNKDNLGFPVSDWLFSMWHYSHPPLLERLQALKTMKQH

ZMPSTE24 [2] = molecular target: T1, ZMPSTE24; experiment: native mass spectrometry titration; type: binding

Row | Kd (ZMPSTE24 [2]) [µM] | SMILES | binding observed at 15 μM (ZMPSTE24 [1])
1 |  | CC(C)CN(C[C@@H](O)[C@H](Cc1ccccc1)NC(=O)O[C@H]1CCOC1)S(=O)(=O)c1ccc(N)cc1 [amprenavir] | binding of amprenavir and ritonavir were observed, albeit in lower amounts
2 | 25 ± 1.2 | Cc1cccc(C)c1OCC(=O)N[C@@H](Cc1ccccc1)[C@@H](O)C[C@H](Cc1ccccc1)NC(=O)[C@H](C(C)C)N1CCCNC1=O [lopinavir] | 
